# Source: patent US20260168007A1, “Methods and Devices for Detecting Mechanical Forces Using Cas Nuclease and Guide RNA Complexes” (Emory University, priority 2022, published 2026)
# Experiments:
# human platelets = experiment: MCATS assay of human platelet forces on Ttol=12 pN surface
# Method: Each drug was incubated for 30 min prior to seeding. Mechano-IC50 was calculated by fitting a plot to a standard dose-response function: Signal=Bottom+(Top-Bottom)/(1+([drug]/IC50).
# Platelet-rich plasma (PRP) is prepared by centrifugation and separation from whole blood. Then platelets rich plasma was separated and centrifuged a second time with apyrase and resuspended in Tyrode's solution, which is isotonic with interstitial fluid, contains magnesium, and uses bicarbonate and phosphate as a buffer. Apyrase is important in the platelets purification process to prevent hemolysis caused platelets aggregation. MCATS was tested as a function of the number of platelets seeded on the Ttol=12pN surface (FIG. 3A). […]
# MCATS assay was performed on the prepared biotin surface as described in the surface preparation section. […] Surfaces with exposed activator were imaged directly with fluorescence microscopy for high resolution characterization and quantification. […] After 1 h of incubation, fluorescence intensities on 96 well plates were measured with a plate reader (Ex/Em=540/590 nm for reporter channel).
# For platelet MCATS measurements, human platelets were purified and incubated at room temperature for at least 30 min before beginning experiments. […] The same MCATS protocols were followed to achieve amplification and quantification for platelets.
# NIH/3T3 cells = experiment: MCATS assay of integrin-mediated forces in NIH/3T3 cells, plate reader readout; assay type: cell-based; conditions: NIH/3T3 cells pretreated 30 min, 0-50 μM
# Method: The values were normalized to the signal obtained from the 25,000 cells/well samples without drug treatment. All measurements were background subtracted using negative control wells lacking cells.
# Considering that receptor mediated tension plays an important role in cell function, quantifying molecular forces of cell in a rapid fashion facilitates applications such as screening dose-response curves for drugs that modulate cell mechanics. Experiments were performed to determine whether MCATS can be used to produce a dose response curve for NIH-3T3 cell incubated with Rho kinase inhibitor, Y-27632, which targets the phosphorylation of myosin light chain and therefore dampens forces transmitted by focal adhesions. NIH/3T3 cells were pretreated with a range of Y-27632 concentrations (0-50 μM) for 30 min. MCATS was ran with the drug treated cell.
# The wells were washed with 1×PBS.
Compound,"MCATS tension signal, dose-response to agonist (human platelets)",MCATS signal as a function of drug concentration (NIH/3T3 cells)
Nc1ncnc2c1ncn2[C@@H]1O[C@H](COP(=O)(O)OP(=O)(O)O)[C@@H](O)[C@H]1O [ADP],Increasing tension signal,–
C[C@@H](N)[C@H]1CC[C@H](C(=O)Nc2ccncc2)CC1 [Y-27632],–,dose-dependent reduction
